Experimental data as given in PMC4410085 (Bioorganic & medicinal chemistry, 2015).

Assays:
[1] = tested on: Bovine brain tubulin; test: Tubulin assembly assay; assay type: biochemical; conditions: read-out: Inhibition tubulin assembly IC50; ± SD; purified bovine brain tubulin
[2] = tested on: A-10 cells; test: Loss of cellular microtubules, indirect immunofluorescence; assay type: cell-based; conditions: result in words
[3] = molecular target: PDGFR-β (Homo sapiens, UniProt P09619); test: Phosphotyrosine ELISA cytoblot, PDGFR-β; assay type: cell-based; conditions: PDGFR-β expressing cells, versus sunitinib
Sequence of PDGFR-β (P09619 33-1106): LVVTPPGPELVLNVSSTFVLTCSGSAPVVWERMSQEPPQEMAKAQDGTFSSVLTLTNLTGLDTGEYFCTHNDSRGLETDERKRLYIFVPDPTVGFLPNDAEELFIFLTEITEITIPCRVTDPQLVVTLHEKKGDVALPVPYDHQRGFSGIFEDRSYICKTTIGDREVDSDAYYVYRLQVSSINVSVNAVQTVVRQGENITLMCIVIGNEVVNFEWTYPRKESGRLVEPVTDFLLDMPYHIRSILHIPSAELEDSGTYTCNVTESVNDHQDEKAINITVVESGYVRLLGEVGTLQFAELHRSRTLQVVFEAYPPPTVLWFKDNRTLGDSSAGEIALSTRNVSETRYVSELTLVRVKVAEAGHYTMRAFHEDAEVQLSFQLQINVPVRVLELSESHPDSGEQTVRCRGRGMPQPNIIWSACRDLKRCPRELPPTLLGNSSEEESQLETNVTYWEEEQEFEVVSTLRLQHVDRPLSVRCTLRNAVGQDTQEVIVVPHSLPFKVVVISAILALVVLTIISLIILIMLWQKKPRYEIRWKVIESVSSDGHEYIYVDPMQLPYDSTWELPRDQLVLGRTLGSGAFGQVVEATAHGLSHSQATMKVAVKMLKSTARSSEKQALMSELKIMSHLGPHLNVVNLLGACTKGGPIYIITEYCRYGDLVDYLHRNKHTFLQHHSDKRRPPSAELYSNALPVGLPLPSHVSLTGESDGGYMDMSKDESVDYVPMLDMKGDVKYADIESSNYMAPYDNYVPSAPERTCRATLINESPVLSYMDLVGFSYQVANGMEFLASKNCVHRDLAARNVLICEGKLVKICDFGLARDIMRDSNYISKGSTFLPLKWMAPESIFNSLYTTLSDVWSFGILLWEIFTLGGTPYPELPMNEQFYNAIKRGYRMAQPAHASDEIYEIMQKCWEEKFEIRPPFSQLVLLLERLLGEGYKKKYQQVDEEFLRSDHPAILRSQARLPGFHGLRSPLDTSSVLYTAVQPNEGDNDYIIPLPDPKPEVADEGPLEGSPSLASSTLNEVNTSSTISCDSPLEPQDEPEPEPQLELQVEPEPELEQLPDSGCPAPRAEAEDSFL

Row | fold better than sunitinib, PDGFR-β [3] | Compound | IC50 [1] | effect on cellular microtubules [2]
1 |  | COc1ccc(/C=C\c2cc(OC)c(OC)c(OC)c2)cc1O [CA-4] | 1000 ± 90 nM | 
2 |  | COc1ccc(N(C)c2nc(C)nc3oc(C)cc23)c(OC)c1 [Compound 2, N-(2,4-dimethoxyphenyl)-N,2,6-trimethylfuro[2,3-d]pyrimidin-4-amine] |  | dose-dependent loss of cellular microtubules
3 |  | COc1ccc(N(C)c2nc(C)nc3oc(C)cc23)cc1OC [Compound 3, N-(3,4-dimethoxyphenyl)-N,2,6-trimethylfuro[2,3-d]pyrimidin-4-amine] |  | dose-dependent loss of cellular microtubules
4 | about 4 fold | Cc1nc(N(C)c2ccc3c(c2)CCO3)c2cc(C)oc2n1 [Compound 6, N-(2,3-dihydro-1-benzofuran-5-yl)-N,2,6-trimethylfuro[2,3-d]pyrimidin-4-amine] |  | dose-dependent loss of cellular microtubules
5 | about 4 fold | Cc1nc(N(C)c2ccc3occc3c2)c2cc(C)oc2n1 [Compound 7, N-1-benzofuran-5-yl-N,2,6-trimethylfuro[2,3-d]pyrimidin-4-amine] |  | dose-dependent loss of cellular microtubules
6 |  | COc1ccc2c(c1)CCN2c1nc(C)nc2oc(C)cc12 [Compound 8, 4-(5-methoxyindolin-1-yl)-2,6-dimethylfuro[2,3-d]pyrimidine] |  | no effect on cellular microtubules
7 |  | COc1ccc2c(c1)CCCN2c1nc(C)nc2oc(C)cc12 [Compound 10, 4-(6-methoxy-3,4-dihydroquinolin-1(2H)-yl)-2,6-dimethylfuro[2,3-d]pyrimidine] |  | dose-dependent loss of cellular microtubules
8 |  | CCOc1ccc(N(C)c2nc(C)nc3oc(C)cc23)cc1 [Compound 12, N-(4-ethoxyphenyl)-N,2,6-trimethylfuro[2,3-d]pyrimidin-4-amine] |  | dose-dependent loss of cellular microtubules
